Test results published in patent publication US20180296523A1, “USE OF POLYMETHOXYLATED FLAVONES TO AMELIORATE CIRCADIAN RHYTHM DISORDERS” (THE BOARD OF REGENTS OF THE UNIVERSITY OF TEXAS SY, priority 2017, published 2018).

Experiments:
RORα-LBD = molecular target: T1, RORα-LBD (Homo sapiens, UniProt P35398); test: Radioligand receptor binding assay with 25-[3H]-OHC, RORα-LBD; settings: for competitive binding to RORα-LBD: in the presence of 4.5 nM 25-[3H]-OHC
T1 sequence (P35398 272-510 limits assumed): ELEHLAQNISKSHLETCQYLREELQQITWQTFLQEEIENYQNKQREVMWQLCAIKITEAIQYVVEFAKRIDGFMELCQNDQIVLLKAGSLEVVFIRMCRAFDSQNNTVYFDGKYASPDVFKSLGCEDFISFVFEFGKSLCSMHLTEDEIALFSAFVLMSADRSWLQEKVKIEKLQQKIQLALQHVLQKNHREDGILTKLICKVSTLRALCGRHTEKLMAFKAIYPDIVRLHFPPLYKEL
Method: (§1) Ligand binding was determined by filter binding assays to calculate the Kd value. […] Ki was determined using the Cheng-Prusoff equation.

GAL4 DBD-RORα LBD = molecular target: T2, GAL4 DBD-RORα LBD (Mus musculus, UniProt P51448); test: Mammalian one-hybrid reporter assay in HEK293T cells, GAL4-RORα; format: cell-based; settings: ligand interaction reduces transcriptional activity
T2 construct: mouse RORα-LBD (aa 261-523); expressed in transfected cells; host or cells: HEK293T
T2 sequence (P51448 261-523): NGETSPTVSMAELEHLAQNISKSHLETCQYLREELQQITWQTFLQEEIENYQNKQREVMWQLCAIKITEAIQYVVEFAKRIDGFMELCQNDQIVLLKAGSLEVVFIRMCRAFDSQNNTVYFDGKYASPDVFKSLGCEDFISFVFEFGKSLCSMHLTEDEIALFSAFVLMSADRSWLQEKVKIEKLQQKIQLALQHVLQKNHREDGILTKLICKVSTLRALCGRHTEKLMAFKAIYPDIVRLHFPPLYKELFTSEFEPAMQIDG
Description: (§2) Plasmids containing the retinoic acid-related orphan receptor response element (RORE) from mouse Bmal1 promoter, pcDNA3.1B-G4DBD-RORαLBD and pcDNA3.1BG4DBD-RORγLBD were constructed in our lab. Specifically, the 1960 bp sequences (−1830/+130) of the mouse Bmal1 promoter harboring either WT ([…] (SEQ ID NO:1) and […] (SEQ ID NO:2)) or mutant ([…] (SEQ ID NO:3)) RORE were PCR amplified from mouse genomic DNA and cloned into pGL3-promoter luciferase vector. For expression of RORα or RORγ-GAL4 protein, mouse RORα-LBD (aa 261-523) or RORγ-LBD (aa 250-516) were PCR amplified from mouse genomic DNA and cloned into a GAL4-DBD-containing vector, pcDNA3.1B.
(§3) For mammalian one-hybrid assays, HEK293T cells were cotransfected with pcDNA3.1B-G4DBD-RORα/γLBD, pGL4.31 and TK promoter Renilla luciferase construct (tK.pRL). To investigate the regulation of the Bmal1 reporter, Hepa1-6 cells were cotransfected with Bmal1-WT or mutant RORE reporter plasmids, RORα, RORγ or Rev-erbα expression construct along with tK.pRL. Mouse and human siRNA targeting RORα and RORγ were purchased from Santa Cruz. Transfection was performed by Lipfectamine 2000 reagent (Invitrogen) Twenty-four hours after transfection, the cells were treated with vehicle or NOB. Lysates were collected 24 h after treatment, and firefly and Renilla luciferase activities were measured by using a Dual-Luciferase Reporter System (Promega).
(§4) For radio-ligand receptor binding assays, previously described protocols with minor modifications (Kumar et al., 2010; Wang et al., 2010b) were adopted.

GAL4 DBD-RORγ LBD = molecular target: T3, GAL4 DBD-RORγ LBD (Mus musculus, UniProt P51450); test: Mammalian one-hybrid reporter assay in HEK293T cells, GAL4-RORγ; format: cell-based; settings: ligand interaction reduces transcriptional activity
T3 construct: RORγ-LBD (aa 250-516); expressed in transfected cells; host or cells: HEK293T
T3 sequence (P51450 250-516): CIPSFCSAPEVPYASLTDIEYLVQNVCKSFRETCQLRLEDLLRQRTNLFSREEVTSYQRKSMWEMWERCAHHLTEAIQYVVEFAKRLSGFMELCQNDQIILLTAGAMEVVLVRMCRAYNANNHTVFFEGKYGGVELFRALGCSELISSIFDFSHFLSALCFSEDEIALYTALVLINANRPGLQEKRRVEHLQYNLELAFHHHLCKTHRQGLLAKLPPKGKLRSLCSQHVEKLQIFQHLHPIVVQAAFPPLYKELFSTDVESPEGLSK
Description: as §2, §3, §4

[1] = tested on: PER2::LucSV reporter fibroblast cells; test: Dose response validation of reporter rhythm in PER2::LucSV cells; format: cell-based, mouse; settings: PER2::LucSV reporter cells
Method: (§5) The chemical screen for circadian clock modulators was conducted at the Chemical Genomics Core facility at the UTHSC-H. The in-house chemical library screened consists of compounds from NIH Clinical Collection, NCI collection and Microsource Spectrum Collection. The screening was conducted largely based on the protocol previously described (Chen et al., 2012). […] Cells were then incubated with 5 μM forskolin for 1-2 h followed by the addition of chemical compounds to the plates with robotic arms (Beckman), and then subjected to continuous monitoring over several days in a temperature-controlled EnVision microplate reader (Perkin Elmer). Data analysis was carried out by using the MultiCycle software (Actimetrics) for measurement of period, phase, and amplitude. […] Tissue explant experiments were conducted as described previously (Chen et al., 2012).

RORγ-LBD = molecular target: T4, RORγ-LBD (Homo sapiens, UniProt P51449); test: Radioligand receptor binding assay with 25-[3H]-OHC, RORγ-LBD; settings: in the presence of 4.5 nM 25-[3H]-OHC
T4 sequence (P51449 269-508 limits assumed): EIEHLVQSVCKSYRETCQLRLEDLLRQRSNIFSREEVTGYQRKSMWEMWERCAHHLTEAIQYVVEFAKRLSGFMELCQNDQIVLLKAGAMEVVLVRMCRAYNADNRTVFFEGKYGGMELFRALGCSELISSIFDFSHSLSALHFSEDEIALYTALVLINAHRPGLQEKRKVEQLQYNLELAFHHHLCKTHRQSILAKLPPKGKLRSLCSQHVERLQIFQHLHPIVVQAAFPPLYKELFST
Method: as §1

[2] = tested on: Clock^Δ19/+ PER2::Luc reporter cells; test: High-throughput chemical screen, PER2::Luc reporter rhythm; format: cell-based, mouse; settings: for PER2::Luc reporter rhythm / circadian amplitude: Clock^Δ19/+ cells, forskolin pre-stimulated
Method: as §5, with “Specifically, the chemical screen for circadian clock modulators was conducted at the Chemical Genomics Core facility at the University of Texas Health Science Center at Houston (UTHSC-H). The in-house chemical library screened consisted of compounds from the National Institutes of Health (NIH) Clinical Collection, National Cancer Institute collection, and Microsource Spectrum Collection. Screening was conducted largely on the basis of the protocol previously described (Chen et al., 2012). […] Upon confluency, cells were incubated with 5 μM forskolin for 1-2 hr, followed by the addition of chemical compounds to the plates with robotic arms (Beckman), and then subjected to continuous monitoring over several days in a temperature-controlled EnVision microplate reader (Perkin Elmer). Data analysis was carried out by using the MultiCycle software (Actimetrics) for measurement of period, phase, and amplitude. The chemical” for “The chemical”

SMILES: C[C@H](CCCC(C)(C)O)[C@H]1CC[C@H]2[C@@H]3CC=C4C[C@@H](O)CC[C@]4(C)[C@H]3CC[C@]12C [25-[3H]—OHC, 25-[3H]-hydroxycholesterol]
- total number of binding sites (Bmax) (RORα-LBD; Scatchard plot, RORα): 100 fmol/mg of protein

SMILES: CC(=O)Nc1nc(C)c(S(=O)(=O)Nc2ccc(C(O)(C(F)(F)F)C(F)(F)F)cc2)s1 [SR1001]
- activity on GAL4-RORα chimeric receptor (GAL4 DBD-RORα LBD): robust activities
- activity on GAL4-RORγ chimeric receptor (GAL4 DBD-RORγ LBD): robust activities

SMILES: O=C1C[C@@H](c2ccc(O)cc2)Oc2cc(O)cc(O)c21 [naringenin]
- reporter luminescence [1]: did not enhance the reporter luminescence
- competitive binding to RORα-LBD (RORα-LBD): no direct binding
- competitive binding to RORα-LBD (RORα-LBD; listed as Naringenin): markedly diminished binding
- competitive binding to RORγ-LBD (RORγ-LBD): no direct binding
- competitive binding to RORγ-LBD (RORγ-LBD; listed as Naringenin): markedly diminished binding
- PER2::Luc reporter rhythm / circadian amplitude [2]: failed to enhance cellular circadian rhythms
- reporter luminescence ([2]; PER2::LUC Clock^Δ19/+ reporter cells): did not enhance the reporter luminescence

SMILES: COc1ccc(-c2cc(=O)c3c(OC)c(OC)c(OC)c(OC)c3o2)cc1 [tangeretin]
- PER2::Luc reporter rhythm / circadian amplitude [2]: similarly enhanced the PER2::Luc reporter rhythm
